What was measured:
Format in all cases: cell-based
[1] = system: Pseudomonas aeruginosa (ATCC 15442) entrapped in alginate gel beads; assay: Biocidal activity against simulated biofilm systems (alginate beads), Example 60
Procedure: The biofilm simulation was created by entrapping bacteria in alginate gel beads. […] Buffer phosphate at pH 7.2 was used to scrap off the bacteria from the agar plate and to create a suspension. The bacterial suspension was mixed with an equal volume of an aqueous 4% sodium alginate solution, to make a final 2% alginate solution. The alginate and bacterial slurry were placed in a 50 ml syringe attached to a gauge needle (22), connected to a compressed air tank, allowing the syringe to be pressurized. At 20 psig pressure a stream of small drops was forced out and dropped into a stirred solution of 50 mM CaCl2. The Ca^+2 hardened the alginate, and semi solid beads with entrapped bacterial cells were formed. The beads were allowed to stir in the CaCl2 solution for about 20 minutes, and then rinsed in a dilute 5 mM CaCl2 solution. Several flasks containing 100 beads each were incubated overnight at 35° C. on a rotating shaker in a buffer solution (at pH 7) with 5 mM addition of CaCl2 to maintain the beads structure. The resulting beads diameter is about 2 mm.
The neutralizer-citrate solution was placed in the refrigerator for 2 hours, than diluted and placed on R2A agar plates using pour plate technique. The plates were incubated at 35° C. for 24-48 hours and counted. The efficacy and toxicity of the neutralizer were checked as well as a control experiment without biocide addition. Four concentrations (0.5, 1, 2.5 and 5 ppm) were tested at four different contact times (5, 15, 30, and 60 min). […] In addition, the efficacy of bromourea from chlorourea and NaBr (1:0.5 molar ratio) was tested at the same concentrations (mentioned above) and after a long contact time of 24 hours (Table 23).

[2] = system: Inoculum of bacteria (Activated sludge taken from Domestic Waste Water treatment Plant—Haifa); assay: Microbial efficacy (% bacteria killed) at different TOC loading, activated sludge inoculum (Example 60); details: 30 min, pH 7
Procedure: (§1) Inoculum of bacteria (Activated sludge taken from Domestic Waste Water treatment Plant—Haifa).
(§2) R2A agar for general counting.
(§3) Tryptone, in amounts 0.025, 0.119, and 0.239 g solid tryptone respectively, was weighed and dissolved in 1 liter of buffer.
Neutralization solution (NaHSO4). […]
1) 1 ml of inoculum was added to tryptone solutions (placed in 3 Erlenmeyers, 100 ml each, with different concentrations of TOC-0, 10 and 50 ppm).
(§4) 2) 1 ml of each sample was inoculated on R2A agar (pour plate method). The result stands for the bacteria count at zero time.
3) For each of the tryptone concentrations (0, 10, 50 ppm TOC) an inoculum of bacteria (1 ml) and the appropriate biocide concentration were added.
(§5) 4) After 30 min. of shaking (100 rpm), 1 ml of each sample was transferred to a tube filled with 9 ml of the neutralization solution. An aliquot of 1 ml was taken from this solution and added to another tube containing 9 ml of buffer solution. The solution was mixed under vortex. This operation was repeated for 4 more times.
(§6) 5) 1 ml from the two lowest dilutions was inoculated on a R2A agar (by the pour plate method).
(§7) 6) After the plates were incubated at 25° C. for 5-7 days, the bacteria count was recorded.

[3] = system: Inoculum of bacteria (Activated sludge taken from Domestic Waste Water treatment Plant—Haifa); assay: Microbial efficacy (% kill) at different TOC loading, activated sludge inoculum (Examples 12-13); details: TOC 100 ppm, 30 min, pH 7
Procedure: as §1, §2, §3
Neutralization solution (NaHSO4).
The biocidal efficacy of the antifouling composition at different organic loads of 0, […], 50 and 100 ppm TOC, was examined under different biocidal concentrations (1, 2.5, and 5 ppm) at pH 7.
1) 1 ml of inoculum was added to tryptone solutions (placed in […], 100 ml each, with different concentrations of TOC-0, 10, 50 and 100 ppm).
as §4
3) For each of the tryptone concentrations (0, 10, 50, 100 ppm TOC) an inoculum of bacteria (1 ml) and the appropriate biocide concentration were added.
as §5, §6, §7

[4] = system: Pseudomonas aeruginosa (ATCC 15442); assay: Microbial efficacy (% bacteria killed) at different TOC loading against Pseudomonas aeruginosa (Example 60)
Procedure: Pseudomonas aeruginosa (ATCC 15442) […]
2) 1 ml of each sample was inoculated on R2A agar (pour plate method). The result stands for the bacteria count at zero time. […]
as §5, §6, §7
7) The above experiment was repeated with Pseudomonas aeruginosa ATCC 15442 (instead of using an inoculums from sludge), which is representative bacteria that form biofilms.
Microbial efficacy of different biocides against Pseudomonas aeruginosa (ATCC 15442) replacing the use activated sludge bacteria.

[5] = biocide 0.5 ppm as Cl2, contact time 0 (initial count)
[6] = biocide 0.5 ppm as Cl2, contact time 5 min
[7] = biocide 0.5 ppm as Cl2, contact time 15 min
[8] = biocide 0.5 ppm as Cl2, contact time 30 min
[9] = biocide 0.5 ppm as Cl2, contact time 60 min
[10] = biocide 1 ppm as Cl2, contact time 0 (initial count)
[11] = biocide 1 ppm as Cl2, contact time 5 min
[12] = biocide 1 ppm as Cl2, contact time 15 min
[13] = biocide 1 ppm as Cl2, contact time 30 min
[14] = biocide 1 ppm as Cl2, contact time 60 min
[15] = biocide 2.5 ppm as Cl2, contact time 0 (initial count)
[16] = biocide 2.5 ppm as Cl2, contact time 5 min
[17] = biocide 2.5 ppm as Cl2, contact time 15 min
[18] = biocide 2.5 ppm as Cl2, contact time 30 min
[19] = biocide 2.5 ppm as Cl2, contact time 60 min
[20] = biocide 5 ppm as Cl2, contact time 0 (initial count)
[21] = biocide 5 ppm as Cl2, contact time 5 min
[22] = biocide 5 ppm as Cl2, contact time 15 min
[23] = biocide 5 ppm as Cl2, contact time 30 min
[24] = biocide 5 ppm as Cl2, contact time 60 min
[25] = TOC 0 ppm, biocide 2.5 ppm as Cl2
[26] = TOC 0 ppm, biocide 5 ppm as Cl2
[27] = TOC 10 ppm, biocide 2.5 ppm as Cl2
[28] = TOC 10 ppm, biocide 5 ppm as Cl2
[29] = TOC 50 ppm, biocide 2.5 ppm as Cl2
[30] = TOC 50 ppm, biocide 5 ppm as Cl2
[31] = TOC 0 ppm, biocide 10 ppm as Cl2
[32] = TOC 10 ppm, biocide 10 ppm as Cl2
[33] = TOC 50 ppm, biocide 10 ppm as Cl2
[34] = TOC 100 ppm, biocide 2.5 ppm as Cl2
[35] = TOC 100 ppm, biocide 5 ppm as Cl2

[Na+].[O-]Cl [NaOCl, reference compound]
survival of bacteria (CFU) [1, 5]: 8.00 × 10^6 CFU
survival of bacteria (CFU) [1, 6]: 7.90 × 10^6 CFU
survival of bacteria (CFU) [1, 7]: 5.65 × 10^6 CFU
survival of bacteria (CFU) [1, 8]: 4.72 × 10^6 CFU
survival of bacteria (CFU) [1, 9]: 5.00 × 10^6 CFU
survival of bacteria (CFU) [1, 10]: 8.00 × 10^6 CFU
survival of bacteria (CFU) [1, 11]: 4.40 × 10^6 CFU
survival of bacteria (CFU) [1, 12]: 3.30 × 10^6 CFU
survival of bacteria (CFU) [1, 13]: 2.15 × 10^6 CFU
survival of bacteria (CFU) [1, 14]: 1.20 × 10^6 CFU
survival of bacteria (CFU) [1, 15]: 8.00 × 10^6 CFU
survival of bacteria (CFU) [1, 16]: 3.60 × 10^6 CFU
survival of bacteria (CFU) [1, 17]: 1.83 × 10^6 CFU
survival of bacteria (CFU) [1, 18]: 7.60 × 10^6 CFU
survival of bacteria (CFU) [1, 19]: 1.95 × 10^5 CFU
survival of bacteria (CFU) [1, 20]: 8.00 × 10^6 CFU
survival of bacteria (CFU) [1, 21]: 1.74 × 10^6 CFU
survival of bacteria (CFU) [1, 22]: 6.80 × 10^6 CFU
survival of bacteria (CFU) [1, 23]: 3. × 10^6 CFU
survival of bacteria (CFU) [1, 24]: 1.00 × 10^0 CFU
% bacteria killed ([2]; TOC 0 ppm, biocide 1 ppm as Cl2): 54.1%
% bacteria killed [2, 25]: 95.5%
% bacteria killed [2, 26]: 99.6%
% bacteria killed ([2]; TOC 10 ppm, biocide 1 ppm as Cl2): 3.7%
% bacteria killed [2, 27]: 34.6%
% bacteria killed [2, 28]: 97.1%
% bacteria killed ([2]; TOC 50 ppm, biocide 1 ppm as Cl2): 0%
% bacteria killed [2, 29]: 12.7%
% bacteria killed [2, 30]: 65.9%
% kill ([3]; biocide 1 ppm as Cl2): 0%
% kill ([3]; biocide 2.5 ppm as Cl2): 0%
% kill ([3]; biocide 5 ppm as Cl2): 0%
% bacteria killed [4, 25]: 100%
% bacteria killed [4, 26]: 100%
% bacteria killed [4, 31]: 100%
% bacteria killed [4, 27]: 43.10%
% bacteria killed [4, 28]: 100%
% bacteria killed [4, 32]: 100%
% bacteria killed [4, 29]: 17.24%
% bacteria killed [4, 30]: 18.97%
% bacteria killed [4, 33]: 100%
% bacteria killed [4, 34]: 0%
% bacteria killed [4, 35]: 27.59%
% bacteria killed ([4]; biocide 10 ppm as Cl2): 90.86%

NC(=O)NBr [bromourea]
% bacteria killed [2, 25]: 99.14%
% bacteria killed [2, 26]: 98.59%
% bacteria killed [2, 31]: 99.88%
% bacteria killed [2, 27]: 95.48%
% bacteria killed [2, 28]: 99.64%
% bacteria killed [2, 32]: 99.89%
% bacteria killed [2, 29]: 7.34%
% bacteria killed [2, 30]: 91.16%
% bacteria killed [2, 33]: 97.69%
% bacteria killed [4, 25]: 100%
% bacteria killed [4, 26]: 100%
% bacteria killed [4, 31]: 100%
% bacteria killed [4, 27]: 100%
% bacteria killed [4, 28]: 100%
% bacteria killed [4, 32]: 100%
% bacteria killed [4, 29]: 0%
% bacteria killed [4, 30]: 99.36%
% bacteria killed [4, 33]: 100%
% bacteria killed [4, 34]: 0%
% bacteria killed [4, 35]: 7.14%
% bacteria killed ([4]; biocide 10 ppm as Cl2): 100%

NC(=O)NCl [chlorourea]
survival of bacteria (CFU) [1, 5]: 8.40 × 10^7 CFU
survival of bacteria (CFU) [1, 6]: 5.90 × 10^6 CFU
survival of bacteria (CFU) [1, 7]: 5.30 × 10^6 CFU
survival of bacteria (CFU) [1, 8]: 5.60 × 10^6 CFU
survival of bacteria (CFU) [1, 9]: 2.25 × 10^6 CFU
survival of bacteria (CFU) [1, 10]: 8.40 × 10^7 CFU
survival of bacteria (CFU) [1, 11]: 7.50 × 10^6 CFU
survival of bacteria (CFU) [1, 12]: 7.20 × 10^6 CFU
survival of bacteria (CFU) [1, 13]: 9.40 × 10^5 CFU
survival of bacteria (CFU) [1, 14]: 9.13 × 10^2 CFU
survival of bacteria (CFU) [1, 15]: 8.40 × 10^7 CFU
survival of bacteria (CFU) [1, 16]: 7.80 × 10^6 CFU
survival of bacteria (CFU) [1, 17]: 2.60 × 10^6 CFU
survival of bacteria (CFU) [1, 18]: 2.21 × 10^3 CFU
survival of bacteria (CFU) [1, 19]: 1.00 × 10^0 CFU
survival of bacteria (CFU) [1, 20]: 8.40 × 10^7 CFU
survival of bacteria (CFU) [1, 21]: 6.70 × 10^6 CFU
survival of bacteria (CFU) [1, 22]: 6.50 × 10^4 CFU
survival of bacteria (CFU) [1, 23]: 1.00 × 10^0 CFU
survival of bacteria (CFU) [1, 24]: 1.00 × 10^0 CFU
% bacteria killed [2, 25]: 56.09%
% bacteria killed [2, 26]: 75.17%
% bacteria killed [2, 31]: 80.46%
% bacteria killed [2, 27]: 67.59%
% bacteria killed [2, 28]: 72.64%
% bacteria killed [2, 32]: 85.06%
% bacteria killed [2, 29]: 64.37%
% bacteria killed [2, 30]: 72.41%
% bacteria killed [2, 33]: 78.85%
% bacteria killed [4, 25]: 93.33%
% bacteria killed [4, 26]: 99.33%
% bacteria killed [4, 31]: 100%
% bacteria killed [4, 27]: 93.77%
% bacteria killed [4, 28]: 99.77%
% bacteria killed [4, 32]: 100%
% bacteria killed [4, 29]: 94.93%
% bacteria killed [4, 30]: 99.81%
% bacteria killed [4, 33]: 100%
% bacteria killed [4, 34]: 94.20%
% bacteria killed [4, 35]: 99.77%
% bacteria killed ([4]; biocide 10 ppm as Cl2): 100%
